# Experimental data reported in US20080014187A1, “Compositions and Methods for Treating Hypertension and Inflammation” (priority 2006, published 2008).
# Assays:
# [1] = case study, patient with hypertension, blood pressure and side effects; format: in vivo, human; conditions: 30 mg CoQ10 at 9 AM, patient on 40 mg telmisartan in the evening; reading by 12 PM, from 140/90 at 8 AM
# Description: Because of these drug side effects, the patient subsequently dropped the amlodipine and took only a 40 mg daily dose of telmisartan in the evening before retiring. […] On one day with a reading of 140/90 at 8 AM, the patient took 30 mg of CoQ10 at 9 AM and their blood pressure sharply dropped to 103/71 by 12 PM. The patient subsequently began taking 30 mg CoQ10 in the morning and evening along with the evening only dose of 40 mg telmisartan.
# [2] = eight human clinical trials; cited from earlier work
# serum IL-6 and TNF-alpha = conditions: reported in the literature; cited from earlier work
structure (smiles),measurement,setting,value
"COC1=C(OC)C(=O)C(C/C=C(\C)CC/C=C(\C)CC/C=C(\C)CC/C=C(\C)CC/C=C(\C)CC/C=C(\C)CC/C=C(\C)CC/C=C(\C)CC/C=C(\C)CCC=C(C)C)=C(C)C1=O [CoQ10, Coenzyme Q10]",blood pressure,[1],103/71
same,decrease of mean diastolic blood pressure,[2],10 mm Hg
same,decrease of mean systolic blood pressure,[2],16 mm Hg
same,serum IL-6,serum IL-6 and TNF-alpha,reduces
same,serum TNF-alpha,serum IL-6 and TNF-alpha,reduces
CCOC(=O)[C@H](CCc1ccccc1)N[C@@H](C)C(=O)N1Cc2ccccc2C[C@H]1C(=O)O [quinapril],serum IL-6,serum IL-6 and TNF-alpha,lower
same,serum TNF-alpha,serum IL-6 and TNF-alpha,lower
